# Assay results as given in US20040058901A1, “Crystalline ethanolate solvate form of zafirluskast process for manufacture and pharmaceutical compositions thereof” (priority 2000, published 2004).
# “And” between values parts separate entries of the source, which are not always exact repeats. Identical values can stand only once. “Also recorded” adds a separate entry of the source. Like-named read-outs stand apart in the source and are kept apart here.
# What was measured:
# [1] = as disclosed in U.S. Pat. No. 5,993,859; cited from earlier work
# [2] = cited from earlier work; for physical stability of the solid form: as disclosed in U.S. Pat. No. 5,993,859
# [3] = Hygroscopicity comparison in controlled humidity chambers, Karl Fisher water content; assay type: physicochemical; settings: compared with zafirlukast Form A; 25° C./60% relative humidity and 40° C./75% relative humidity, two weeks
# Description: Hygroscopicities of zafirlukast ethanolate and zafirlukast Form A were compared by maintaining samples in controlled humidity chambers at 25° C. under 60% relative humidity and at 40° C. under 75% relative humidity for a period of two weeks, followed by Karl Fisher analysis of water content.
# [4] = Physical stability of zafirlukast ethanolate and its compositions; assay type: physicochemical
# [5] = Drying of zafirlukast ethanolate in an air oven (weight loss, physical properties); assay type: physicochemical; settings: 105±1° C., 4 hours
# Description: Preferably, the methods further comprise the step of drying the crystals of zafirlukast ethanolate. Effective drying methods include vacuum oven drying, air oven or simple vacuum desiccator drying. The ethanolate is stable at ambient temperature and will tolerate vacuum drying. When vacuum oven drying is used, one must exercise caution to avoid breaking the ethanolate. Preferred drying conditions for the ethanol solvate are about 30 to about 70° C. vacuum oven drying and are about 30 to about 105° C. at air oven drying.
# 5.0 g of zafirlukast Forms A, B or X, prepared according to U.S. Pat. No. 5,993,859 or zafirlukast, prepared according to J. Med. Chem., v. 33, 1781 (1990) were dissolved in hot acetone (50 mL). The solution was concentrated under reduced pressure to the volume of about 20 mL, heated to reflux and absolute ethanol (100 mL) was added to the solution. Acetone was distilled off from the stirred mixture through a 10 cm Vigreux column equipped with a distillation head until the temperature of vapor in the head of the column reached 78° C. The resulting mixture was kept overnight at the room temperature. The precipitated crystals were filtered off, washed on filter with ice cold absolute ethanol (2×5 mL) and dried under reduced pressure at 60° C. (water bath) to give crystalline zafirlukast ethanolate with mp 130-132° C.
# [6] = high relative humidity and elevated temperatures
smiles,measurement,setting,value
"COc1cc(C(=O)NS(=O)(=O)c2ccccc2C)ccc1Cc1cn(C)c2ccc(NC(=O)OC3CCCC3)cc12 [Form X, cyclopentyl 3-[2-methoxy-4-[(o-tolylsulfonyl)carbamoyl]benzyl]-1-methylindole-5-carbamate]",bioavailability,[1],relatively poor bioavailability
same,physical stability of the solid form,[2],physically stable
"COc1cc(C(=O)NS(=O)(=O)c2ccccc2C)ccc1Cc1cn(C)c2ccc(NC(=O)OC3CCCC3)cc12 [Form A, cyclopentyl 3-[2-methoxy-4-[(o-tolylsulfonyl)carbamoyl]benzyl]-1-methylindole-5-carbamate]",bioavailability,[1],relatively good bioavailability
same,form conversion under high relative humidity and elevated temperatures,[2]; [6],conversion of form A into form B occurs
"COc1cc(C(=O)NS(=O)(=O)c2ccccc2C)ccc1Cc1cn(C)c2ccc(NC(=O)OC3CCCC3)cc12 [Form B, cyclopentyl 3-[2-methoxy-4-[(o-tolylsulfonyl)carbamoyl]benzyl]-1-methylindole-5-carbamate]",physical stability of the solid form,[2],physically unstable
CCO.COc1cc(C(=O)NS(=O)(=O)c2ccccc2C)ccc1Cc1cn(C)c2ccc(NC(=O)OC3CCCC3)cc12 [zafirlukast ethanolate],hygroscopicity,[3],less hygroscopic than other known forms of zafirlukast; also recorded: less hygroscopic than Form A of zafirlukast
same,physical stability of the solid form,[4],relatively stable
same,stability at ambient temperature,[4]; ambient temperature,stable
same,stability under high relative humidity and elevated temperatures,[4]; [6],stable
same,"change of physical properties on drying (mp, 1H NMR, infra-red spectra)",[5],without substantial change of physical properties
same,weight loss on drying,[5],< 1% and 0.86%
